Measured values as given in US10487093B2, “Heterocyclic compounds, in particular 2-oxo-4,4,5,5,6,6,7,7-octahydrobenzoxazole derivatives, and their use as antibacterial compounds” (priority 2016, dated 2019).
≈ marks a conversion by molar mass, not a printed value. Read-outs that look alike come from different tables or passages of the source.

Legend:
Format in all cases: cell-based
[1] = tested on: strains of Bacteroides fragilis; experiment: MIC against anaerobes, agar dilution (CLSI), clinical isolates
[2] = tested on: strains of Prevotella melaninogenica; experiment: as above
[3] = tested on: strains of Prevotella bivia; experiment: as above
[4] = tested on: Bacteroides fragilis ATCC 25285; experiment: MIC against anaerobes, agar dilution (CLSI), reference strain; conditions: ATCC25285, 48 h, read-out: MIC, B. fragilis ATCC 25285
[5] = tested on: strains of Peptostreptococcus anaerobius; experiment: MIC against anaerobes, agar dilution (CLSI), clinical isolates
[6] = tested on: strains of Propionibacterium acnes; experiment: as above; conditions: Cutibacterium acnes
[7] = tested on: Bacteroides thetaiotaomicron ATCC 29741; experiment: microbe, parasite or virus in culture; conditions: ATCC29741, 48 h, read-out: MIC, B. thetaiotaomicron ATCC
[8] = tested on: strains of Parvimonas micra; experiment: MIC against anaerobes, agar dilution (CLSI), clinical isolates
[9] = tested on: strains of Bacteroides thetaiotaomicron; experiment: microbe, parasite or virus in culture
[10] = tested on: strains of Finegoldia magna; experiment: MIC against anaerobes, agar dilution (CLSI), clinical isolates
[11] = tested on: strains of Clostridium perfringens; experiment: microbe, parasite or virus in culture
[12] = tested on: strains of Peptoniphilus harei; experiment: MIC against anaerobes, agar dilution (CLSI), clinical isolates
[13] = tested on: Clostridium difficile ATCC 700057; experiment: MIC against anaerobes, agar dilution (CLSI), reference strain; conditions: Clostridioides difficile, ATCC700057, 48 h, read-out: MIC, C. difficile ATCC 700057

## CN[C@H](CC(C)C)C(=O)N[C@H]1C(=O)N[C@@H](CC(N)=O)C(=O)N[C@H]2C(=O)N[C@H]3C(=O)N[C@H](C(=O)N[C@H](C(=O)O)c4cc(O)cc(O)c4-c4cc3ccc4O)[C@H](O)c3ccc(c(Cl)c3)Oc3cc2cc(c3O[C@@H]2O[C@H](CO)[C@@H](O)[C@H](O)[C@H]2O[C@H]2C[C@](C)(N)[C@H](O)[C@H](C)O2)Oc2ccc(cc2Cl)[C@H]1O [VAN, vancomycin, reference compound]
[1]; Bacteroides fragilis strain 1
  MIC: 16 to 64 µg/mL (≈ 11 to 44.2 µM)
[1]; Bacteroides fragilis strain 2
  MIC: 16 to 64 µg/mL (≈ 11 to 44.2 µM)
[1]; Bacteroides fragilis strain 3
  MIC: 4 to 16 µg/mL (≈ 2.76 to 11 µM)
[1]; Bacteroides fragilis strain 4
  MIC: 16 to 64 µg/mL (≈ 11 to 44.2 µM)
[1]; Bacteroides fragilis strain 5
  MIC: 16 to 64 µg/mL (≈ 11 to 44.2 µM)
[1]; Bacteroides fragilis strain 6
  MIC: 4 to 16 µg/mL (≈ 2.76 to 11 µM)
[1]; Bacteroides fragilis strain 7
  MIC: 4 to 16 µg/mL (≈ 2.76 to 11 µM)
[1]; Bacteroides fragilis strain 8
  MIC: 16 to 64 µg/mL (≈ 11 to 44.2 µM)
[1]; Bacteroides fragilis strain 9
  MIC: 4 to 16 µg/mL (≈ 2.76 to 11 µM)
[1]; Bacteroides fragilis strain 10
  MIC: 16 to 64 µg/mL (≈ 11 to 44.2 µM)
[1]; Bacteroides fragilis strain 11
  MIC: 16 to 64 µg/mL (≈ 11 to 44.2 µM)
[1]; Bacteroides fragilis strain 12
  MIC: 16 to 64 µg/mL (≈ 11 to 44.2 µM)
[2]; Prevotella melaninogenica strain 1
  MIC: > 64 µg/mL
[2]; Prevotella melaninogenica strain 2
  MIC: 4 to 16 µg/mL (≈ 2.76 to 11 µM)
[2]; Prevotella melaninogenica strain 3
  MIC: > 64 µg/mL
[2]; Prevotella melaninogenica strain 4
  MIC: > 64 µg/mL
[2]; Prevotella melaninogenica strain 5
  MIC: 16 to 64 µg/mL (≈ 11 to 44.2 µM)
[2]; Prevotella melaninogenica strain 6
  MIC: > 64 µg/mL
[2]; Prevotella melaninogenica strain 7
  MIC: 16 to 64 µg/mL (≈ 11 to 44.2 µM)
[2]; Prevotella melaninogenica strain 8
  MIC: 4 to 16 µg/mL (≈ 2.76 to 11 µM)
[2]; Prevotella melaninogenica strain 9
  MIC: 4 to 16 µg/mL (≈ 2.76 to 11 µM)
[2]; Prevotella melaninogenica strain 10
  MIC: > 64 µg/mL
[2]; Prevotella melaninogenica strain 11
  MIC: > 64 µg/mL
[3]; Prevotella bivia strain 1
  MIC: > 64 µg/mL
[3]; Prevotella bivia strain 2
  MIC: > 64 µg/mL
[3]; Prevotella bivia strain 3
  MIC: 16 to 64 µg/mL (≈ 11 to 44.2 µM)
[3]; Prevotella bivia strain 4
  MIC: > 64 µg/mL
[3]; Prevotella bivia strain 5
  MIC: > 64 µg/mL
[3]; Prevotella bivia strain 6
  MIC: > 64 µg/mL
[3]; Prevotella bivia strain 7
  MIC: > 64 µg/mL
[3]; Prevotella bivia strain 8
  MIC: 16 to 64 µg/mL (≈ 11 to 44.2 µM)
[3]; Prevotella bivia strain 9
  MIC: > 64 µg/mL
[3]; Prevotella bivia strain 10
  MIC: 16 to 64 µg/mL (≈ 11 to 44.2 µM)
[4]
  MIC: 16 to 64 µg/mL (≈ 11 to 44.2 µM)
[5]; Peptostreptococcus anaerobius strain 1
  MIC: < 1 µg/mL
[5]; Peptostreptococcus anaerobius strain 2
  MIC: < 1 µg/mL
[5]; Peptostreptococcus anaerobius strain 3
  MIC: < 1 µg/mL
[5]; Peptostreptococcus anaerobius strain 4
  MIC: > 64 µg/mL
[5]; Peptostreptococcus anaerobius strain 5
  MIC: < 1 µg/mL
[5]; Peptostreptococcus anaerobius strain 6
  MIC: < 1 µg/mL
[5]; Peptostreptococcus anaerobius strain 7
  MIC: < 1 µg/mL
[5]; Peptostreptococcus anaerobius strain 8
  MIC: < 1 µg/mL
[5]; Peptostreptococcus anaerobius strain 9
  MIC: < 1 µg/mL
[5]; Peptostreptococcus anaerobius strain 10
  MIC: < 1 µg/mL
[6]; Propionibacterium acnes strain 1
  MIC: < 1 µg/mL
[6]; Propionibacterium acnes strain 2
  MIC: < 1 µg/mL
[6]; Propionibacterium acnes strain 3
  MIC: < 1 µg/mL
[6]; Propionibacterium acnes strain 4
  MIC: < 1 µg/mL
[6]; Propionibacterium acnes strain 5
  MIC: < 1 µg/mL
[6]; Propionibacterium acnes strain 6
  MIC: < 1 µg/mL
[6]; Propionibacterium acnes strain 7
  MIC: < 1 µg/mL
[6]; Propionibacterium acnes strain 8
  MIC: < 1 µg/mL
[6]; Propionibacterium acnes strain 9
  MIC: < 1 µg/mL
[6]; Propionibacterium acnes strain 10
  MIC: < 1 µg/mL
[6]; Propionibacterium acnes strain 11
  MIC: < 1 µg/mL
[6]; Propionibacterium acnes strain 12
  MIC: 4 to 16 µg/mL (≈ 2.76 to 11 µM)
[7]
  MIC: 16 to 64 µg/mL (≈ 11 to 44.2 µM)
[8]; Parvimonas micra strain 1
  MIC: < 1 µg/mL
[8]; Parvimonas micra strain 2
  MIC: < 1 µg/mL
[8]; Parvimonas micra strain 3
  MIC: < 1 µg/mL
[8]; Parvimonas micra strain 4
  MIC: 1 to 4 µg/mL (≈ 0.69 to 2.76 µM)
[8]; Parvimonas micra strain 5
  MIC: 1 to 4 µg/mL (≈ 0.69 to 2.76 µM)
[8]; Parvimonas micra strain 6
  MIC: < 1 µg/mL
[8]; Parvimonas micra strain 7
  MIC: 1 to 4 µg/mL (≈ 0.69 to 2.76 µM)
[8]; Parvimonas micra strain 8
  MIC: < 1 µg/mL
[8]; Parvimonas micra strain 9
  MIC: < 1 µg/mL
[8]; Parvimonas micra strain 10
  MIC: < 1 µg/mL
[8]; Parvimonas micra strain 11
  MIC: < 1 µg/mL
[8]; Parvimonas micra strain 12
  MIC: < 1 µg/mL
[9]; Bacteroides thetaiotaomicron strain 1, read-out: MIC
  MIC: 16 to 64 µg/mL (≈ 11 to 44.2 µM)
[9]; Bacteroides thetaiotaomicron strain 2, read-out: MIC
  MIC: 16 to 64 µg/mL (≈ 11 to 44.2 µM)
[9]; Bacteroides thetaiotaomicron strain 3, read-out: MIC
  MIC: 16 to 64 µg/mL (≈ 11 to 44.2 µM)
[9]; Bacteroides thetaiotaomicron strain 4, read-out: MIC
  MIC: 16 to 64 µg/mL (≈ 11 to 44.2 µM)
[9]; Bacteroides thetaiotaomicron strain 5, read-out: MIC
  MIC: 16 to 64 µg/mL (≈ 11 to 44.2 µM)
[9]; Bacteroides thetaiotaomicron strain 6, read-out: MIC
  MIC: 16 to 64 µg/mL (≈ 11 to 44.2 µM)
[9]; Bacteroides thetaiotaomicron strain 7, read-out: MIC
  MIC: 16 to 64 µg/mL (≈ 11 to 44.2 µM)
[9]; Bacteroides thetaiotaomicron strain 8, read-out: MIC
  MIC: 16 to 64 µg/mL (≈ 11 to 44.2 µM)
[9]; Bacteroides thetaiotaomicron strain 9, read-out: MIC
  MIC: < 1 µg/mL
[9]; Bacteroides thetaiotaomicron strain 10, read-out: MIC
  MIC: 16 to 64 µg/mL (≈ 11 to 44.2 µM)
[9]; Bacteroides thetaiotaomicron strain 11, read-out: MIC
  MIC: 16 to 64 µg/mL (≈ 11 to 44.2 µM)
[10]; Finegoldia magna strain 1
  MIC: A (a MIC (in μg/mL) of less than 1 is assigned the letter A)
[10]; Finegoldia magna strain 2
  MIC: A (a MIC (in μg/mL) of less than 1 is assigned the letter A)
[10]; Finegoldia magna strain 3
  MIC: A (a MIC (in μg/mL) of less than 1 is assigned the letter A)
[10]; Finegoldia magna strain 4
  MIC: A (a MIC (in μg/mL) of less than 1 is assigned the letter A)
[10]; Finegoldia magna strain 5
  MIC: A (a MIC (in μg/mL) of less than 1 is assigned the letter A)
[10]; Finegoldia magna strain 6, read-out: MIC
  MIC: < 1 µg/mL
[10]; Finegoldia magna strain 7
  MIC: A (a MIC (in μg/mL) of less than 1 is assigned the letter A)
[10]; Finegoldia magna strain 8
  MIC: A (a MIC (in μg/mL) of less than 1 is assigned the letter A)
[10]; Finegoldia magna strain 9
  MIC: A (a MIC (in μg/mL) of less than 1 is assigned the letter A)
[10]; Finegoldia magna strain 10
  MIC: A (a MIC (in μg/mL) of less than 1 is assigned the letter A)
[10]; Finegoldia magna strain 11
  MIC: A (a MIC (in μg/mL) of less than 1 is assigned the letter A)
[10]; Finegoldia magna strain 12
  MIC: A (a MIC (in μg/mL) of less than 1 is assigned the letter A)
[11]
  MIC: < 1 µg/mL
[12]; Peptoniphilus harei strain 1
  MIC: A (a MIC (in μg/mL) of less than 1 is assigned the letter A)
[12]; Peptoniphilus harei strain 2
  MIC: A (a MIC (in μg/mL) of less than 1 is assigned the letter A)
[12]; Peptoniphilus harei strain 3
  MIC: A (a MIC (in μg/mL) of less than 1 is assigned the letter A)
[12]; Peptoniphilus harei strain 4
  MIC: A (a MIC (in μg/mL) of less than 1 is assigned the letter A)
[12]; Peptoniphilus harei strain 5
  MIC: A (a MIC (in μg/mL) of less than 1 is assigned the letter A)
[12]; Peptoniphilus harei strain 6, read-out: MIC
  MIC: < 1 µg/mL
[12]; Peptoniphilus harei strain 7
  MIC: A (a MIC (in μg/mL) of less than 1 is assigned the letter A)
[12]; Peptoniphilus harei strain 8
  MIC: A (a MIC (in μg/mL) of less than 1 is assigned the letter A)
[12]; Peptoniphilus harei strain 9
  MIC: A (a MIC (in μg/mL) of less than 1 is assigned the letter A)
[12]; Peptoniphilus harei strain 10
  MIC: A (a MIC (in μg/mL) of less than 1 is assigned the letter A)
[12]; Peptoniphilus harei strain 11
  MIC: A (a MIC (in μg/mL) of less than 1 is assigned the letter A)
[12]; Peptoniphilus harei strain 12
  MIC: A (a MIC (in μg/mL) of less than 1 is assigned the letter A)
[13]
  MIC: 1 to 4 µg/mL (≈ 0.69 to 2.76 µM)
